Series [1] addresses 72 kDa type IV collagenase (Homo sapiens, UniProt P08253). Kind of series: Inhibition of APMA-activated human recombinant MMP2 incubated for 5 mins using 4-nitrophenylacetate substrate by esterase assay.
For a further series, the system named is HeLa. Briefly: Antiproliferative activity against human HeLa cells incubated for 48 hrs by MTT assay. It is filed as functional, cell-based. Background: Tetrazolium dyes change colour on reduction, which living cells bring about.
In series [2] the target is Matrix metalloproteinase-9 (Homo sapiens, UniProt P14780). Briefly: Inhibition of APMA-activated human recombinant MMP9 incubated for 5 mins using 4-nitrophenylacetate substrate by esterase assay.
For a further series, the system named is HepG2. Kind of series: Antiproliferative activity against human HepG2 cells incubated for 48 hrs by MTT assay. It is filed as functional, cell-based. The conditions noted are these: HepG2, 48 h.
The next series concerns A549. Briefly: cells. Conditions: Homo sapiens, A549, 48 h.
In a further series the test system is MCF7. Briefly: Antiproliferative activity against human MCF7 cells incubated for 48 hrs by MTT assay. The class given is functional, cell-based. Conditions: MCF7, 48 h.
The nature of series [3]: Cytotoxicity against HEK293T cells incubated for 48 hrs by MTT assay. Conditions: human. It is filed as cell-based, HEK-293T.

Chain of 72 kDa type IV collagenase (P08253 whole entry): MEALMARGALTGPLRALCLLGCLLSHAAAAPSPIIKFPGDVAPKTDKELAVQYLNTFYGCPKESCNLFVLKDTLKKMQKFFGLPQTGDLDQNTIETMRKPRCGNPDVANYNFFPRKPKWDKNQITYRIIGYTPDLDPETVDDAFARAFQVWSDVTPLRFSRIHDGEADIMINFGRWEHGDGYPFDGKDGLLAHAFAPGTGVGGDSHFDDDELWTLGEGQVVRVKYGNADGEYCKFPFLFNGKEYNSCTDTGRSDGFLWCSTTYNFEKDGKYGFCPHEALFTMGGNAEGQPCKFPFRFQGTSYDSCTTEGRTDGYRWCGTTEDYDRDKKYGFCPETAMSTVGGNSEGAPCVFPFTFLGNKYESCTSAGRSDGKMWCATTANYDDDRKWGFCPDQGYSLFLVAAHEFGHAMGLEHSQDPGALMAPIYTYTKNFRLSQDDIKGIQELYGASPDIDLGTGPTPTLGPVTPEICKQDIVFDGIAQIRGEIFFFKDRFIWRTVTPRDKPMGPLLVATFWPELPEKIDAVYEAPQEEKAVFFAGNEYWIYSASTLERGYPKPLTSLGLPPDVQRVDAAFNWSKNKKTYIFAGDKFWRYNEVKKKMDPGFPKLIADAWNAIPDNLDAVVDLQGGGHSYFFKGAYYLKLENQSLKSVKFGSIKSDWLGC
Chain of Matrix metalloproteinase-9 (P14780 whole entry): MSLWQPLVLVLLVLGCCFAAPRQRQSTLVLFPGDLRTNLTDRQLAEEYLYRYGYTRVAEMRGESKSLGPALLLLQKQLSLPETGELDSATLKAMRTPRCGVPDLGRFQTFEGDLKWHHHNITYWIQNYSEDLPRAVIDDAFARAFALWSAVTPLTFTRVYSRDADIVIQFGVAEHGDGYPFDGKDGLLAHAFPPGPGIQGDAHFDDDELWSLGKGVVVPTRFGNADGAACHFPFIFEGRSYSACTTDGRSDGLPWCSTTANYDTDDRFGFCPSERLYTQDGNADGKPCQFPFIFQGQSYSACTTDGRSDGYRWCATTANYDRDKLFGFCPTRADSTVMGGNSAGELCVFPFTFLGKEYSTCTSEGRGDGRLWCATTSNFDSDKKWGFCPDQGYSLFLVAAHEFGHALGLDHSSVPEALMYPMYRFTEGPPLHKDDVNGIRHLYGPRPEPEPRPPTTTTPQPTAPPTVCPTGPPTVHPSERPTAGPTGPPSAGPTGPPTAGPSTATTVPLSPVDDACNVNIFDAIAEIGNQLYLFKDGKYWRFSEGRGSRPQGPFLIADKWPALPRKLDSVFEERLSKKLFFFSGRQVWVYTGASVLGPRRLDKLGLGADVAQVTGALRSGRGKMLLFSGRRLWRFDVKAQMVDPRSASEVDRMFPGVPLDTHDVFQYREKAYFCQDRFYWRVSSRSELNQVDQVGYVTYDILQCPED

For the compound `Cc1cccc(C2=NN(c3ccc(S(N)(=O)=O)cc3)C(c3cccc4ccccc34)C2)c1` (configuration not stated), the IC50 in series [1] (read-out: IC50) was determined as 3.24 µM; in the series on HeLa, 9.87 µM; in series [2], 4.29 µM; with HepG2, 5.83 µM; with A549 it was 3.14 µM; in the series with MCF7, 8.63 µM. Besides, the CC50 (as a rule, the concentration that lowers cell viability or growth by half) at 48 h in series [3] came to 48.2 µM.

For `Cc1ccccc1C1=NN(c2ccc(S(N)(=O)=O)cc2)C(c2ccc3ccccc3c2)C1` (configuration not stated), the IC50 in series [1] (read-out: IC50) came out at 11.4 µM; in the series on HeLa it was 15.6 µM; in series [2], 7.91 µM; with HepG2, 6.88 µM; in the series with A549 it was 6.84 µM; in the series on MCF7, 16.3 µM. Moreover, the CC50 at 48 h in series [3] came to 51.7 µM.

With `NS(=O)(=O)c1ccc(N2N=C(c3cccc(I)c3)CC2c2ccc3ccccc3c2)cc1` (configuration not stated), the IC50 in series [1] (read-out: IC50) amounted to 15.7 µM; in the series with HeLa, 32 µM; in series [2], 6.91 µM; in the series with HepG2, 18.1 µM; in the series on A549, 12 µM; with MCF7 it was 11.1 µM. In series [3], this compound yielded a 50% cytotoxic concentration (CC50) at 48 h of 55.9 µM.

With `NS(=O)(=O)c1ccc(N2N=C(c3cccc(I)c3)CC2c2cccc3ccccc23)cc1` (configuration not stated), the IC50 in series [1] (read-out: IC50) turned out to be 9.43 µM; in the series on HeLa it was 26 µM; in series [2], 12.9 µM; with HepG2 it was 8.06 µM; in the series on A549 it was 6.83 µM; with MCF7, 18.1 µM. Also, in series [3], the half-maximal cytotoxic concentration (CC50) at 48 h turned out to be 46.9 µM.

In the case of `NS(=O)(=O)c1ccc(N2N=C(c3cccc(F)c3)CC2c2ccc3ccccc3c2)cc1` (configuration not stated), the IC50 in series [1] (read-out: IC50) was 23.8 µM; in the series on HeLa, 21.1 µM; in series [2] it was 5.96 µM; in the series with HepG2 it was 24.8 µM; in the series on A549, 7.83 µM; in the series on MCF7 it was 13.1 µM. For the same compound, it took 49 µM to reach half-maximal cytotoxicity in series [3] (CC50 at 48 h).

Regarding `Cc1cccc(C2=NN(c3ccc(S(N)(=O)=O)cc3)C(c3ccc4ccccc4c3)C2)c1` (configuration not stated), the IC50 stood at 3.86 µM in series [1] (read-out: IC50); 26.4 µM with HeLa; 5.92 µM in series [2]; 7.68 µM in the series on HepG2; 7.64 µM in the series with A549; 11.1 µM in the series on MCF7. For the same compound, in series [3], the 50% cytotoxic concentration (CC50) at 48 h stood at 52.4 µM.

Take `COc1cccc(C2=NN(c3ccc(S(N)(=O)=O)cc3)C(c3cccc4ccccc34)C2)c1` (configuration not stated): the IC50 in series [1] (read-out: IC50) amounted to 4.83 µM; in the series on HeLa, 30.6 µM; in series [2], 6.72 µM; in the series with HepG2, 36.4 µM; with A549 it was 5.82 µM; in the series on MCF7, 26.1 µM. Further, the CC50 at 48 h in series [3] is 45.3 µM.

On to `Cc1ccc(C2=NN(c3ccc(S(N)(=O)=O)cc3)C(c3ccc4ccccc4c3)C2)cc1` (configuration not stated), for which the IC50 in series [1] (read-out: IC50) was found to be 2.81 µM; in the series with HeLa, 17.6 µM; in series [2], 4.95 µM; in the series with HepG2, 8.32 µM; in the series with A549, 6.9 µM; with MCF7 it was 18.2 µM. Moreover, the CC50 at 48 h in series [3] was determined as 53.1 µM.

Consider `COc1ccc(C2=NN(c3ccc(S(N)(=O)=O)cc3)C(c3cccc4ccccc34)C2)cc1` (configuration not stated), for which the IC50 in series [1] (read-out: IC50) was 4.27 µM; in series [1] (read-out: pIC50 (converted)), 4.17 µM; in the series on HeLa it was 30.1 µM; in series [2], 8.61 µM; in the series with HepG2, 27.8 µM; in the series with A549 it was 6.51 µM. This compound also gave an IC50 in the series with MCF7 of 26.4 µM. The CC50 at 48 h in series [3] is 47.1 µM.

Consider `Cc1ccc(-c2cc(C(F)(F)F)nn2-c2ccc(S(N)(=O)=O)cc2)cc1` [CELECOXIB], for which the IC50 in the series with HeLa worked out at 7.55 µM; with HepG2, 0.76 µM; with A549, 2.15 µM; with MCF7, 6.88 µM. This compound also returned a CC50 at 48 h in series [3] of 54.4 µM.

In the case of `COc1cc2ncnc(Nc3ccc(F)c(Cl)c3)c2cc1OCCCN1CCOCC1` [GEFITINIB], the IC50 in the series with A549 came out at 2.86 µM.

Take `C[C@@]1(O)c2cccc(O)c2C(=O)C2=C(O)[C@]3(O)C(=O)C(C(N)=O)=C(O)C[C@@H]3C[C@@H]21`: the IC50 was determined as 1.26 µM in series [1] (read-out: IC50) and 2.52 µM in series [2].

The record behind these values is ChEMBL document CHEMBL3621140, “Sulfonamide derivatives containing dihydropyrazole moieties selectively and potently inhibit MMP-2/MMP-9: Design, synthesis, inhibitory activity and 3D-QSAR analysis” (Bioorg Med Chem Lett, 2015).
